According to PubChem BioAssay AID248 (DTP/NCI, 2004):
Several values for one entry are separate records, joined by “and”; a condition that tells them apart may be missing. Equal entries are not always repeated. Inconclusive results and toxic doses are left out. Rule as the data show it: active = T/C of 150% or more; inactive = T/C below 125%.

Tested on: L1210 leukemia ip in BDF1 mice, survival T/C
Assay: NCI In Vivo Anticancer Drug Screen. Data for tumor model L1210 Leukemia (intraperitoneal) in B6D2F1 (BDF1) mice
Conditions: higher = longer survival
Procedure, shortened: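 Mice bearing the transplanted tumor received compound or vehicle. Survival of the treated group was divided by that of the vehicle-treated control group to give the ratio.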

[1] = endpoint: mean survival time, dose: 100.0 mg/kg/injection, schedule: Q04DX003 (ip), vehicle: saline with Tween-80
[2] = endpoint: mean survival time, dose: 200.0 mg/kg/injection, schedule: Q04DX003 (ip), vehicle: saline with Tween-80
[3] = endpoint: mean survival time, dose: 400.0 mg/kg/injection, schedule: Q04DX003 (ip), vehicle: saline with Tween-80
[4] = endpoint: mean survival time, dose: 100.0 mg/kg/injection, schedule: Q04DX003 (ip), vehicle: Klucel (hydroxypropylcellulose) (HPC)
[5] = endpoint: mean survival time, dose: 200.0 mg/kg/injection, schedule: Q04DX003 (ip), vehicle: Klucel (hydroxypropylcellulose) (HPC)
[6] = endpoint: mean survival time, dose: 400.0 mg/kg/injection, schedule: Q04DX003 (ip), vehicle: Klucel (hydroxypropylcellulose) (HPC)
[7] = endpoint: mean survival time, dose: 50.0 mg/kg/injection, schedule: Q01DX001 (ip), vehicle: saline
[8] = endpoint: mean survival time, dose: 100.0 mg/kg/injection, schedule: Q01DX001 (ip), vehicle: saline
[9] = endpoint: mean survival time, dose: 200.0 mg/kg/injection, schedule: Q01DX001 (ip), vehicle: saline
[10] = endpoint: mean survival time, dose: 400.0 mg/kg/injection, schedule: Q01DX001 (ip), vehicle: saline
[11] = endpoint: mean survival time, dose: 100.0 mg/kg/injection, schedule: Q01DX009 (ip), vehicle: Klucel (hydroxypropylcellulose) (HPC)
[12] = endpoint: mean survival time, dose: 200.0 mg/kg/injection, schedule: Q01DX009 (ip), vehicle: Klucel (hydroxypropylcellulose) (HPC)
[13] = endpoint: mean survival time, dose: 400.0 mg/kg/injection, schedule: Q01DX009 (ip), vehicle: Klucel (hydroxypropylcellulose) (HPC)

Measured: T/C

CCCCCCc1ccccc1
inactive: endpoint: mean survival time, dose: 100.0 mg/kg/injection, schedule: Q01DX009 (ip), vehicle: saline with Tween-80 98 % of control | [1] 105 % of control | endpoint: mean survival time, dose: 200.0 mg/kg/injection, schedule: Q01DX009 (ip), vehicle: saline with Tween-80 98 % of control | [2] 94 % of control | endpoint: mean survival time, dose: 400.0 mg/kg/injection, schedule: Q01DX009 (ip), vehicle: saline with Tween-80 88 % of control | [3] 95 % of control

CCCCNC(=O)c1cc(Cl)cc(Cl)c1Br
inactive: endpoint: mean survival time, dose: 100.0 mg/kg/injection, schedule: Q01DX001 (ip), vehicle: saline with Tween-80 91 % of control | endpoint: mean survival time, dose: 200.0 mg/kg/injection, schedule: Q01DX001 (ip), vehicle: saline with Tween-80 90 % of control | endpoint: mean survival time, dose: 400.0 mg/kg/injection, schedule: Q01DX001 (ip), vehicle: saline with Tween-80 93 % of control

COc1nc(NNC(N)=S)ccc1[N+](=O)[O-]
inactive: [4] 91 % of control | [5] 93 % of control | [6] 93 % of control

O=C(Nc1ncccn1)C(F)(F)F
inactive: [7] 95 % of control | [8] 92 % of control | [9] 95 % of control | [10] 90 % of control

O=C1c2ccccc2-c2cccc([N+](=O)[O-])c21
inactive: endpoint: mean survival time, dose: 100.0 mg/kg/injection, schedule: Q01DX001 (ip), vehicle: carboxymethylcellulose (CMC) 97 % of control | endpoint: mean survival time, dose: 200.0 mg/kg/injection, schedule: Q01DX001 (ip), vehicle: carboxymethylcellulose (CMC) 92 % of control | endpoint: mean survival time, dose: 400.0 mg/kg/injection, schedule: Q01DX001 (ip), vehicle: carboxymethylcellulose (CMC) 97 % of control

O=C1CC(C(F)(F)F)(C(F)(F)F)O1
inactive: endpoint: mean survival time, dose: 100.0 mg/kg/injection, schedule: Q04DX002 (ip), vehicle: other 120 % of control | endpoint: mean survival time, dose: 200.0 mg/kg/injection, schedule: Q04DX002 (ip), vehicle: other 102 % of control | endpoint: mean survival time, dose: 400.0 mg/kg/injection, schedule: Q04DX002 (ip), vehicle: other 102 % of control

O=[As](O)(O)c1ccccc1Br
inactive: endpoint: mean survival time, dose: 75.0 mg/kg/injection, schedule: Q01DX001 (ip), vehicle: saline 111 % of control | endpoint: mean survival time, dose: 150.0 mg/kg/injection, schedule: Q01DX001 (ip), vehicle: saline 105 % of control | endpoint: mean survival time, dose: 300.0 mg/kg/injection, schedule: Q01DX001 (ip), vehicle: saline 102 % of control

NC(N)=Nc1ccc(-c2ccc(N=C(N)N)cc2)cc1
inactive: endpoint: mean survival time, dose: 12.5 mg/kg/injection, schedule: Q01DX Z (oral), vehicle: saline 97 % of control | endpoint: mean survival time, dose: 25.0 mg/kg/injection, schedule: Q01DX Z (oral), vehicle: saline 106 % of control | endpoint: mean survival time, dose: 50.0 mg/kg/injection, schedule: Q01DX Z (oral), vehicle: saline 101 % of control | endpoint: mean survival time, dose: 100.0 mg/kg/injection, schedule: Q01DX Z (oral), vehicle: saline 105 % of control | endpoint: mean survival time, dose: 200.0 mg/kg/injection, schedule: Q01DX Z (oral), vehicle: saline 100 % of control

CN1CCN=C1c1ccc(NC(=O)c2ccc(C(=O)Nc3ccc(C4=NCCN4C)cc3)c([N+](=O)[O-])c2)cc1
inactive: endpoint: mean survival time, dose: 1.5 mg/kg/injection, schedule: Q01DX Z (ip), vehicle: carboxymethylcellulose (CMC) 96 % of control | endpoint: mean survival time, dose: 3.0 mg/kg/injection, schedule: Q01DX Z (ip), vehicle: carboxymethylcellulose (CMC) 101 % of control | endpoint: mean survival time, dose: 6.0 mg/kg/injection, schedule: Q01DX Z (ip), vehicle: carboxymethylcellulose (CMC) 90 % of control

NC(CS)=NCC12CC3CC(CC(C3)C1)C2
inactive: endpoint: mean survival time, dose: 12.5 mg/kg/injection, schedule: Q04DX003 (ip), vehicle: carboxymethylcellulose (CMC) 93 % of control | endpoint: mean survival time, dose: 25.0 mg/kg/injection, schedule: Q04DX003 (ip), vehicle: carboxymethylcellulose (CMC) 98 % of control

Nc1cccc(C(=O)CC(=O)Nc2nccs2)c1
inactive: endpoint: mean survival time, dose: 50.0 mg/kg/injection, schedule: Q04DX003 (ip), vehicle: Klucel (hydroxypropylcellulose) (HPC) 90 % of control | endpoint: mean survival time, dose: 100.0 mg/kg/injection, schedule: Q01DX001 (ip), vehicle: Klucel (hydroxypropylcellulose) (HPC) 98 % of control | [4] 95 % of control | endpoint: mean survival time, dose: 200.0 mg/kg/injection, schedule: Q01DX001 (ip), vehicle: Klucel (hydroxypropylcellulose) (HPC) 103 % of control | [5] 90 % of control | endpoint: mean survival time, dose: 400.0 mg/kg/injection, schedule: Q01DX001 (ip), vehicle: Klucel (hydroxypropylcellulose) (HPC) 98 % of control

Nc1ncnc2sc(SCc3ccccc3)nc12
inactive: [1] 107 % of control | [2] 102 % of control | [3] 100 % of control

CCN(CC)C(=O)C1C2CC3OC(=O)C1C3C2 (stereo not given)
inactive: endpoint: mean survival time, dose: 100.0 mg/kg/injection, schedule: Q04DX003 (ip), vehicle: saline 105 % of control and 108 % of control | endpoint: mean survival time, dose: 200.0 mg/kg/injection, schedule: Q04DX003 (ip), vehicle: saline 94 % of control and 102 % of control | endpoint: mean survival time, dose: 400.0 mg/kg/injection, schedule: Q04DX003 (ip), vehicle: saline 104 % of control

CCCCCCCCCCCCCCCC(CCCC)C1CCCCC1 (stereo not given)
inactive: endpoint: mean survival time, dose: 100.0 mg/kg/injection, schedule: Q01DX001 (ip), vehicle: saline + alcohol 100 % of control | endpoint: mean survival time, dose: 200.0 mg/kg/injection, schedule: Q01DX001 (ip), vehicle: saline + alcohol 98 % of control | endpoint: mean survival time, dose: 400.0 mg/kg/injection, schedule: Q01DX001 (ip), vehicle: saline + alcohol 96 % of control

COc1c(N)cc2c(c1C)OCOC2
inactive: [8] 97 % of control | [9] 100 % of control | [10] 105 % of control

NC(Cc1cc(I)c(Oc2cc(I)c(O)c(I)c2)c(I)c1)C(=O)O (stereo not given)
inactive: endpoint: median survival time, dose: 0.63 mg/kg/injection, schedule: Q01DX009 (ip), vehicle: saline 98 % of control | endpoint: median survival time, dose: 2.5 mg/kg/injection, schedule: Q01DX009 (ip), vehicle: saline 92 % of control | endpoint: median survival time, dose: 10.0 mg/kg/injection, schedule: Q01DX009 (ip), vehicle: saline 88 % of control | endpoint: median survival time, dose: 40.0 mg/kg/injection, schedule: Q01DX009 (ip), vehicle: saline 93 % of control

O=Cc1cc(O)c(O)c(O)c1
inactive: endpoint: mean survival time, dose: 50.0 mg/kg/injection, schedule: Q01DX001 (ip), vehicle: other 103 % of control | endpoint: mean survival time, dose: 100.0 mg/kg/injection, schedule: Q01DX001 (ip), vehicle: other 101 % of control | endpoint: mean survival time, dose: 200.0 mg/kg/injection, schedule: Q01DX001 (ip), vehicle: other 101 % of control | endpoint: mean survival time, dose: 400.0 mg/kg/injection, schedule: Q01DX001 (ip), vehicle: other 104 % of control

Cc1ccc(Cl)nn1
inactive: [8] 108 % of control | [9] 109 % of control

O=S(Cc1ccccc1)Cc1ccccc1
inactive: [7] 110 % of control | [8] 110 % of control | [11] 103 % of control | [4] 90 % of control | [9] 103 % of control | [12] 100 % of control | [5] 97 % of control | [10] 100 % of control | [13] 102 % of control | [6] 100 % of control

Nc1cc(C(=O)Nc2cccc(C3=NCCN3)c2)ccc1C(=O)Nc1cccc(C2=NCCN2)c1
inactive: endpoint: mean survival time, dose: 7.5 mg/kg/injection, schedule: Q01DX Z (ip), vehicle: saline 113 % of control | endpoint: mean survival time, dose: 10.0 mg/kg/injection, schedule: Q01DX Z (ip), vehicle: saline 110 % of control

COc1cc(/C=N/NC(=O)c2ccccc2NC(=O)c2ccccc2)ccc1O
inactive: [11] 97 % of control | [12] 95 % of control | [13] 100 % of control

CN(C)CCC(=O)c1ccc2cc(Br)c3ccccc3c2c1
inactive: endpoint: mean survival time, dose: 13.3 mg/kg/injection, schedule: Q01DX Z (ip), vehicle: methylcellulose (MC) 91 % of control | endpoint: mean survival time, dose: 30.0 mg/kg/injection, schedule: Q01DX Z (ip), vehicle: methylcellulose (MC) 95 % of control
